Data as given in patent US20080090805A1, “CB-1 MODULATING COMPOUNDS AND THEIR USE” (ACADIA PHARMACEUTICALS INC., priority 2005, published 2008).
Like-named read-outs stand apart in the source and are kept apart here.

Target: native CB1 receptors (Rattus norvegicus, UniProt P20272)
Assay: CB1 receptor rat binding assay ([3H]SR141716A, rat brain membranes)
Conditions: rat brain membranes
[1] = [3H]SR141716A, read-out: Binding rat pKi (converted)

Chain of native CB1 receptors (P20272 whole entry): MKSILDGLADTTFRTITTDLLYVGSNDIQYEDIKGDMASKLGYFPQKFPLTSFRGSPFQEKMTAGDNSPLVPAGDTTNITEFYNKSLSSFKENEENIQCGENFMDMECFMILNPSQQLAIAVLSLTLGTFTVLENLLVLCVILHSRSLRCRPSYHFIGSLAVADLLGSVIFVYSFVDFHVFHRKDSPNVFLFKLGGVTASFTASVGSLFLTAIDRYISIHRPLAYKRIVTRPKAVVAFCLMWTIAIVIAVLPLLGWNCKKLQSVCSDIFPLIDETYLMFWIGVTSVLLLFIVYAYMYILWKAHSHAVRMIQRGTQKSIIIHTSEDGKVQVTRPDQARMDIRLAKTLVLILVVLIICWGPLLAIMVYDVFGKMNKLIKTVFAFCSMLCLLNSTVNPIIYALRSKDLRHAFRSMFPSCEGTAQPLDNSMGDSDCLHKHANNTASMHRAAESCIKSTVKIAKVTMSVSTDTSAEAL

SMILES | Binding rat Inh % ([3H]SR141716A) [%] | Ki [1] [nM] | Ki (3 nM [3H]SR141716A, read-out: Rat Brain pKi (converted)) [nM]
O=C(NN1CCCCCC1)c1ccc2c(c1)N=C(c1ccc(Cl)cc1Cl)c1ccccc1S2 [drawing 1522] | 72 | 79.4 | –
O=C(NCc1ccccc1Cl)c1ccc2c(c1)N=C(N1CCCCC1)c1ccccc1S2 [drawing 1366] | – | 31.6 | –
Cc1csc(CNC(=O)c2ccc3c(c2)N=C(c2sccc2C)c2ccccc2S3)c1 [drawing 1255] | 93 | 1 | –
O=C(NC1CCCC1)c1ccc2c(c1)N=C(c1ccc(Cl)cc1)c1ccccc1S2 [drawing 1436] | 89 | 50.1 | –
N#Cc1ccc(C2=Nc3cc(C(=O)NNCc4ccccc4)ccc3Sc3ccccc32)cc1 [drawing 1538] | 65 | 100 | –
O=C(NCc1ccccc1Cl)c1ccc2c(c1)N=C(c1ccccc1F)c1ccccc1S2 [drawing 1413] | – | 39.8 | –
O=C(NCc1ccco1)c1ccc2c(c1)N=C(c1cccc(F)c1)c1ccccc1S2 [drawing 1252] | 93 | 15.8 | –
CC(CNC(=O)c1ccc2c(c1)N=C(C1CCCCC1)c1ccccc1S2)c1ccccc1 (stereo not drawn) [drawing 1329] | – | 3.16 | –
O=C(NCc1cccc(Cl)c1)c1ccc2c(c1)N=C(c1ccc(F)cc1)c1ccccc1[S+]2[O-] (stereo not drawn) [drawing 1390] | – | 31.6 | –
Cc1ccc(N2CCN(C(=O)c3ccc4c(c3)N=C(c3ccc(Cl)cc3)c3ccccc3S4)CC2)c(C)c1 [Example 19] | – | – | 50.1
O=C(NCCC(F)(F)F)c1ccc2c(c1)N=C(c1cccc(F)c1)c1ccccc1S2 [drawing 1337] | 108 | 3.98 | –
O=C(NCc1ccco1)c1ccc2c(c1)N=C(c1cccc(Cl)c1)c1ccccc1S2 [drawing 1448] | 85 | 7.94 | –
O=C(NCc1cccnc1)c1ccc2c(c1)N=C(c1ccc(Cl)cc1)c1ccccc1S2 [drawing 1260] | 76 | 15.8 | –
O=C(NCc1cccc(Cl)c1)c1ccc2c(c1)N=C(N1CCCCC1)c1cc(F)ccc1S2 [drawing 1181] | – | 12.6 | –
CC(C)NC(=O)c1ccc2c(c1)N=C(c1ccc(Cl)cc1)c1ccccc1S2 [drawing 1372] | 90 | 31.6 | –
O=C(NCCc1ccccn1)c1ccc2c(c1)N=C(c1cccc(Cl)c1)c1ccccc1S2 [drawing 1475] | 76 | 63.1 | –
CC(CNC(=O)c1ccc2c(c1)N=C(N1CCCCC1)c1ccccc1S2)c1ccccc1 (stereo not drawn) [drawing 1455] | – | 7.94 | –
CCN(CCNC(=O)c1ccc2c(c1)N=C(C1CCCCC1)c1ccccc1S2)c1ccccc1 [drawing 1296] | – | 2.51 | –
CC(C)CNC(=O)c1ccc2c(c1)N=C(c1cccc(F)c1)c1ccccc1S2 [drawing 1490] | 87 | 10 | –
O=C(NN1CCCC1)c1ccc2c(c1)N=C(c1ccc(Cl)cc1)c1ccccc1S2 [drawing 1502] | 63 | 63.1 | –
Cc1ccsc1C1=Nc2cc(C(=O)NN3[C@H](C)CCC[C@@H]3C)ccc2Sc2ccccc21 [drawing 1530] | 65 | 79.4 | –
Cc1csc(CNC(=O)c2ccc3c(c2)N=C(c2cccc(C)n2)c2ccccc2S3)c1 [drawing 1263] | 94 | 1.58 | –
O=C(c1ccc2c(c1)N=C(c1ccc(F)cc1)c1ccccc1S2)N1CCCCC1 [drawing 1544] | – | 100 | –

SMILES | Binding rat Inh % ([3H]SR141716A) [%] | Ki [1] [nM] | Ki (3 nM [3H]SR141716A, read-out: Rat Brain pKi (converted)) [nM]
CCCNC(=O)c1ccc2c(c1)N=C(c1ccc(F)cc1)c1ccccc1S2 [drawing 1262] | 87 | 20 | –
O=C(NCCc1cccc(Cl)c1)c1ccc2c(c1)N=C(c1ccccc1)c1ccccc1S2 [drawing 1457] | – | 7.94 | –
O=C(NCCC(F)(F)F)c1ccc2c(c1)N=C(c1ccc(Cl)s1)c1ccccc1S2 [drawing 1273] | 85 | 2 | –
CCCCNC(=O)c1ccc2c(c1)N=C(c1ccc(Cl)cc1)c1ccccc1[S+]2[O-] (stereo not drawn) [drawing 1205] | – | 12.6 | –
Cc1ccc(CNC(=O)c2ccc3c(c2)N=C(c2ccc(F)cc2)c2ccccc2S3)o1 [drawing 1239] | 108 | 0.794 | –
O=C(NC1CCC(F)(F)CC1)c1ccc2c(c1)N=C(c1cccc(Cl)c1)c1ccccc1S2 [drawing 1242] | 79 | 1 | –
O=C(NN1CCCCCC1)c1ccc2c(c1)N=C(c1ccc(F)cc1)c1ccccc1S2 [drawing 1433] | 112 | 6.31 | –
CCN(CCNC(=O)c1ccc2c(c1)N=C(c1cccc(Cl)c1)c1ccccc1S2)c1ccccc1 [drawing 1298] | – | 2.51 | –
Cc1ccsc1C1=Nc2cc(C(=O)NCCC(F)(F)F)ccc2Sc2ccccc21 [drawing 1198] | 103 | 12.6 | –
O=C(NCc1ccco1)c1ccc2c(c1)N=C(c1ccccc1F)c1ccccc1S2 [drawing 1435] | 83 | 50.1 | –
O=C(NCc1cccc(Cl)c1)c1ccc2c(c1)N=C(N1CCCCC1)c1ccccc1[S+]2[O-] (stereo not drawn) [drawing 1315] | – | 25.1 | –
CCCC1=Nc2cc(C(=O)NCC(C)c3ccccc3)ccc2Sc2ccccc21 (stereo not drawn) [drawing 1395] | – | 31.6 | –
COc1ccc(C2=Nc3cc(C(=O)NCc4ccncc4)ccc3Sc3ccccc32)cc1 [drawing 1412] | 67 | 39.8 | –
O=C(NCc1ccc(Cl)cc1Cl)c1ccc2c(c1)N=C(N1CCCCC1)c1ccccc1S2 [drawing 1514] | – | 79.4 | –
O=C(NCc1cccs1)c1ccc2c(c1)N=C(c1ccccc1F)c1ccccc1S2 [drawing 1227] | 94 | 15.8 | –
CCCCNC(=O)c1ccc2c(c1)N=C(c1ccc(Cl)cn1)c1ccc(F)cc1S2 [drawing 1317] | 86 | 25.1 | –
CCCCNC(=O)c1ccc2c(c1)N=C(c1cccc(Cl)c1)c1cc(F)ccc1S2 [drawing 1447] | 108 | 7.94 | –
CCCCNC(=O)c1ccc2c(c1)N=C(c1ccc(F)cc1)c1ccccc1S2 [drawing 1238] | – | 15.8 | –
O=C(NCc1ccc(Cl)cc1Cl)c1ccc2c(c1)N=C(c1ccc(F)cc1)c1ccccc1S2 [drawing 1211] | – | 12.6 | –
CCCCNC(=O)c1ccc2c(c1)N=C(c1ccc(Br)cn1)c1ccccc1S2 [drawing 1378] | 83 | 5.01 | –
CCOC(=O)c1ccc(C2=Nc3cc(C(=O)NCc4ccccn4)ccc3Sc3ccccc32)cc1 [drawing 1476] | −43 | 63.1 | –
O=C(Cc1ccccc1)NNC(=O)c1ccc2c(c1)N=C(c1ccc(Cl)cc1)c1ccccc1S2 [drawing 1451] | 72 | 50.1 | –
Cc1csc(CNC(=O)c2ccc3c(c2)N=C(c2ccsc2)c2ccccc2S3)c1 [drawing 1313] | 106 | 3.16 | –

SMILES | Binding rat Inh % ([3H]SR141716A) [%] | Ki [1] [nM] | Ki (3 nM [3H]SR141716A, read-out: Rat Brain pKi (converted)) [nM]
C[C@@H]1CCC[C@H](C)N1NC(=O)c1ccc2c(c1)N=C(c1cccc(Cl)c1)c1ccccc1S2 [drawing 1526] | 73 | 10 | –
O=C(NC1CCCCC1)c1ccc2c(c1)N=C(c1ccc(Cl)cc1)c1ccccc1S2 [drawing 1518] | 96 | 10 | –
CC(C)CNC(=O)c1ccc2c(c1)N=C(c1ccsc1)c1ccccc1S2 [drawing 1303] | 90 | 2.51 | –
O=C(NCc1cccnc1)c1ccc2c(c1)N=C(c1cccc(F)c1)c1ccccc1S2 [drawing 1221] | 84 | 15.8 | –
O=C(NCCc1ccc(Cl)cc1)c1ccc2c(c1)N=C(N1CCC(F)CC1)c1ccccc1S2 [drawing 1195] | – | 12.6 | –
O=C(NCCCc1ccccc1)c1ccc2c(c1)N=C(c1ccccc1F)c1ccccc1S2 [drawing 1206] | – | 12.6 | –
CCN(CCNC(=O)c1ccc2c(c1)N=C(c1ccccc1)c1ccccc1S2)c1ccccc1 [drawing 1245] | – | 15.8 | –
COc1ccc(C2=Nc3cc(C(=O)NC(C)C)ccc3Sc3ccccc32)cc1 [drawing 1550] | 79 | 100 | –
O=C(NCc1ccco1)c1ccc2c(c1)N=C(c1ccc(F)cc1)c1ccccc1S2 [drawing 1370] | 103 | 5.01 | –
CN1c2ccc(C(=O)NCc3ccc(F)cc3)cc2N=C(c2ccc(F)cc2)c2ccccc21 [drawing 1496] | 83 | 63.1 | –
CC(C)CNC(=O)c1ccc2c(c1)N=C(c1ccc(Cl)s1)c1ccc(F)cc1S2 [drawing 1359] | 95 | 3.98 | –
O=C(NN1CCCCC1)c1ccc2c(c1)N=C(c1ccc(Cl)cc1)c1ccccc1S2 [drawing 1424] | 60 | 6.31 | –
CC(NC(=O)c1ccc2c(c1)N=C(c1ccc(Cl)cc1)c1ccccc1S2)c1ccccc1 (stereo not drawn) [drawing 1493] | – | 63.1 | –
O=C(NCc1ccccc1)c1ccc2c(c1)N=C(c1ccccc1)c1ccccc1S2 [drawing 1219] | – | 15.8 | –
O=C(NCc1cccc(Cl)c1)c1ccc2c(c1)N=C(C1CCCCC1)c1cc(F)ccc1S2 | – | 10 | –
CCCCNC(=O)c1ccc2c(c1)N=C(c1ccc(Cl)c(F)c1)c1ccccc1S2 [drawing 1274] | 96 | 2 | –
O=C(NCc1ccc(F)cc1)c1ccc2c(c1)N=C(c1cccc(Cl)c1)c1ccccc1S2 [drawing 1391] | – | 5.01 | –
NS(=O)(=O)c1ccc(CNC(=O)c2ccc3c(c2)N=C(c2ccc(F)cc2)c2ccccc2S3)cc1 [drawing 1454] | 72 | 50.1 | –
COc1ccc(C2=Nc3cc(C(=O)NN4[C@H](C)CCC[C@@H]4C)ccc3Sc3ccccc32)cc1 [drawing 1432] | 88 | 6.31 | –
O=C(NCc1cccnc1)c1ccc2c(c1)N=C(c1ccccc1F)c1ccccc1S2 [drawing 1318] | 73 | 25.1 | –
CCC1=Nc2cc(C(=O)NCCc3ccc(OC)c(OC)c3)ccc2Sc2ccccc21 | – | 63.1 | –
CC(CNC(=O)c1ccc2c(c1)N=C(c1cccc(Cl)c1)c1ccccc1S2)c1ccccc1 (stereo not drawn) [drawing 1304] | – | 2.51 | –
O=C(NCc1ccc(F)cc1)c1ccc2c(c1)N=C(c1ccc(Cl)cc1)c1ccccc1[S+]2[O-] (stereo not drawn) [drawing 1301] | – | 20 | –
